Data on one compound can be found in the NIST ThermoML archive (doi:10.1021/acs.jced.8b01220).

SMILES strings stand for the structures. ± gives the expanded uncertainty stated by the source.

The conditions of the series: Crystal; DSC.

`CC(C)(N)CO` [2-amino-2-methylpropan-1-ol]: the Triple point temperature is 295.75 ± 2 K.
